Holding throughout (format): functional
Assay [1] in a line: Antioxidant activity assessed as inhibition of lipid peroxidation at 3 ug incubated at 40 degC in dark by paper disk method.
Assay [2] is described as follows: Antioxidant activity assessed as inhibition of lipid peroxidation at 20 ug incubated at 40 degC in dark by paper disk method.
Assay [3] can be described thus: Antioxidant activity assessed as inhibition of lipid peroxidation in dark at 40 degC by paper disk method.

Active and inactive are the calls of the source. No cut-off for these calls is given here.

With `C=Cc1c(C)c2cc3nc(c4c5[nH]c(cc6nc(cc1[nH]2)C(C)=C6CC)c(C)c5C(=O)C4=O)[C@@H](CCC(=O)O)[C@@H]3C`, the outcome in assay [1] was Active. As to `Cc1c(C)c2c(c(C)c1O)CC[C@@](C)(CCC[C@H](C)CCC[C@H](C)CCCC(C)C)O2`, the result in assay [2] was Active. Regarding `C=Cc1c(C)c2cc3nc4c5c6[nH]c(cc7nc(cc1[nH]2)C(C)=C7CC)c(C)c6C(=O)[C@]5(O)C(=O)CC[C@H]4[C@@H]3C`, the outcome in assay [3] was Active. With `C=Cc1c(C)c2cc3nc4c(c5[nH]c(cc6nc(cc1[nH]2)C(C)=C6CC)c(C)c5C(=O)OC)C(=O)C(=O)CC[C@H]4[C@@H]3C`, in assay [1], the outcome was Active. The same measure, in the same setting: the entry for `C=Cc1c(C)c2cc3nc(c4c5[nH]c(cc6nc(cc1[nH]2)C(C)=C6CC)c(C)c5C(=O)C4)[C@@H](CCC(=O)O)[C@@H]3C` is “Active”; for `C=Cc1c(C)c2cc3nc4c5c6[nH]c(cc7nc(cc1[nH]2)C(C)=C7CC)c(C)c6C(=O)[C@@]5(O)C(=O)CC[C@H]4[C@@H]3C` it is “Active”; for `C=Cc1c(C)c2cc3nc(c4c5[nH]c(cc6nc(cc1[nH]2)C(C)=C6CC)c(C)c5C(=O)OC4=O)[C@@H](CCC(=O)OC)[C@@H]3C` it is “Active”.

With `C=Cc1c(C)c2cc3nc4c5c6[nH]c(cc7nc(cc1[nH]2)C(C)=C7CC)c(C)c6C(=O)O[C@@]5(O)C(=O)CC[C@H]4[C@@H]3C`, in assay [1], the outcome was Active.

For the compound `C=Cc1c(C)c2cc3nc(c4c5[nH]c(cc6nc(cc1[nH]2)C(C)=C6CC)c(C)c5C(=O)OC4=O)[C@@H](CCC(=O)O)[C@@H]3C`, the outcome in assay [1] was Active.

The record behind these values is ChEMBL document CHEMBL1147344, “New Chlorophyll-A-Related Compounds Isolated as Antioxidants from Marine Bivalves” (J Nat Prod, 1993).
